Assay results published in paper PMC8400257, “2-Phenoxy-3-Trichloromethylquinoxalines Are Antiplasmodial Derivatives with Activity against the Apicoplast of Plasmodium falciparum” (Pharmaceuticals, 2021).
“Also recorded” adds a separate entry of the source.

Tests used:
[1] = tested on: P. falciparum (NF135 strain) hepatic exoerythrocytic forms; test: Liver stage development in infected primary human hepatocytes; format: cell-based, Plasmodium falciparum
Experimental: The effect of (3i) on the hepatic stage of P. falciparum was next studied in order to know if (3i) was active against another stage of P. falciparum cycle. Cryopreserved primary human hepatocytes were infected with 30,000 freshly extracted P. falciparum sporozoites and simultaneously treated with a dose range (0.9–30 µM) of (3i). Atovaquone (ATQ) was used as a positive parasite-killing control at 25 nM.
P. falciparum (NF135 strain) sporozoites were isolated by dissection of the salivary glands of infected A. stephensi 14–21 days after an infective blood meal (Department of medical microbiology, University Medical Centre, St Radboud, Nijmegen Netherland). All infected salivary glands were removed by hand dissection, crushed in a potter for sporozoites isolation, and filtrated through a 40 μm filter to remove mosquito debris (Cell Strainer, BD BioSciences, Franklin Lakes, NJ, USA). The sporozoites were counted using a disposable Glasstic microscope slide (KOVA, Garden Grove, CA, USA).
One day before hepatocyte thawing, 96-well plates were coated by a Corning®® collagen solution (50 µg/mL rat tail type I collagen in 0.02N acid acetic) over night at room temperature. The next day, the wells were washed twice by PBS solution. Cryopreserved primary human hepatocytes (LONZA, Basel, Swiss) were seeded in 96-well plates with a pre-determined seeding dose that gave a single dense layer of attached hepatocytes. Four days post-seeding, each plate well was infected with 30,000 freshly extracted Plasmodium falciparum sporozoites. […]
Hepatocyte cultures were fixed with 4% paraformaldehyde solution (PFA, Invitrogen) for 10 min. […] Images were analyzed and prepared with ImageJ software. Apicoplast morphology was observed and quantified by eye under a confocal microscope.
Upon immunostaining of parasites, the study plates were scanned using a CellInsight high-content screening platform equipped with the Studio HCS software (Thermo Fisher Scientific, Waltham, MA, USA). […] The number of host hepatocyte nuclei per well was counted by the system as a measure of toxicity of 3i towards the liver cells. […]

[2] = tested on: quiescent ART-resistant F32-ART5 parasites; test: Quiescent-stage survival assay (QSA); format: cell-based, Plasmodium falciparum; details: F32-ART5, DHA 700 nM 6 h then DHA + 3i 2.5 or 5 µM 48 h
Experimental: Chemosensitivity evaluation of ART-resistant parasites at the quiescent stage was performed on the strain F32-ART5 thanks to the quiescent-stage survival assay (QSA). D-sorbitol synchronized ring-stages parasites at 3% parasitemia (2% hematocrit) were first exposed to 700 nM of dihydroartemisinin (DHA) for 6 h to induce quiescence of artemisinin-resistant parasites. Then, quiescent parasites were exposed or not (as control condition) to the drug to be tested for 48 h. After drug exposure, parasite cultures were washed with RPMI-1640 medium and replaced in normal drug-free culture conditions. The time to parasite recrudescence was determined as the time required to reach the 3% initial parasitemia. […] In each experiment, results obtained with the condition “DHA 6 h/DHA 48 h” were compared to those obtained with the condition “DHA 6 h/(DHA + drug to be tested) 48 h” in order to determine the delay in recrudescence time. […]
3. Studying the effect of (3i) on the liver stage development of P. falciparum Cryopreserved primary human hepatocytes were seeded in 96 well plates with a pre-determined seeding dose that gave a single dense layer of attached hepatocytes. […]
The culture medium with or without drugs was refreshed every 48 hours and two independent plates were studied. […] Plates were subjected to quantification using an automated plate scanner. […]

O=[N+]([O-])c1ccc(Oc2nc3ccccc3nc2C(Cl)(Cl)Cl)cc1 [3i, 2-(4-Nitrophenoxy)-3-trichloromethylquinoxaline]
Effect on exoerythrocytic forms (EEF or schizont) size and numbers ([1]; 3i 0.9-30 µM, ATQ 25 nM, 6 or 12 days post-infection): not observe a significant effect on parasite growth; also recorded: no effect
Effect on the apicoplast in the hepatic stage ([1]; up to 30 µM, day 6 post-infection): quite not affected
Activity on quiescent ART-resistant parasites (delay in recrudescence time, QSA) [2]: did not present any activity
